Results on one compound are retold here after patent US10470987B2, “Process for stimulating hyaluronic acid synthesis” (TOMCAT INTERNATIONAL LIMITED, priority 2015, dated 2019).

For this experiment, the system named is has-2 expression. Description: has-2 expression in human skin fibroblasts by real time quantitative PCR, 6 hours incubation. The following applies: 2 μM, vs untreated. The class given is cell-based. The protocol:
Human skin fibroblast cells are spread in DMEM medium containing 10% of fetal bovine serum (FBS) and antibiotics (penicillin/streptomycin) and incubated until a 90% confluence is reached. The medium is removed and replaced by fresh medium comprising resveratrol (RSV) or resveratrol oligomers (OR) respectively. Table 1 below indicates the different conditions tested and concentrations used. [table] Human skin fibroblast cells are incubated for 6 hours at 37° C. under 5% CO2. The ARN extraction is made by using the ARN Omega extraction kit. 1 μg of ARN is used and retranscribed into complementary DNA using the ADNc Bio-Rad iScript™ synthesis kit followed by a real time quantitative PCR quantification. The PCR reactions have been carried out using Fast-Start™ DNA Master SYBR Green I real-time PCR kit (Roche Molecular Biochemicals). Each PCR has been carried out in a final volume of 20 μl containing 10 μl of SYBR Green mix 2× (Fast start DNA master SYBR green+Taq DNA polymerase), 2 μl of 10 μM primer mixture (finally 1 μM) and 8 μl of ADNc solution (50 ng). The primers used are described in table 2 below. [table]

The structures appear in SMILES notation.

`Oc1ccc(C=Cc2cc(O)cc(O)c2)cc1` [resveratrol, 3,5,4′-trihydroxystilbene]: the “increase of has-2 expression by fibroblasts” value came out at 18% and the “induction of has-2 expression by fibroblasts, factor” value came out at 1.18.
